In patent publication US20230090111A1, “CXCL8 INHIBITOR AND PHARMACEUTICAL COMPOSITION THEREOF FOR USE IN THE TREATMENT OF CANCER-RELATED FATIGUE” (Dompe' farmaceutici SpA, priority 2020, published 2023):
Several values for one entry are separate records, joined by “and”; a condition that tells them apart may be missing. Identical values can stand only once. Entries after “also recorded” stand apart in the source; their conditions may differ.

Assays:
[1] = test system: dogs with osteosarcoma metastatic to the lungs; experiment: Prospective pilot study: QoL of dogs given doxorubicin, oclacitinib and ladarixin; type: in vivo; design: mqol gooddavs / mqol_sleeps / mqol_depressed / mqol_eats / mqol_drinks / mqol_moves / mqol_lays / mqol_active / mqol_play / mqol_presence / mqol_enjoyslife: scale not given here; settings: for mqol gooddavs / mqol_active / mqol_depressed / mqol_drinks / mqol_eats / mqol_enjoyslife / mqol_lays / mqol_moves / mqol_play / mqol_presence / mqol_sleeps: with doxorubicin+oclacitinib
Description: A prospective pilot study was conducted to evaluate whether the addition of ladarixin to doxorubicin and oclacitinib mitigates the adverse event profile associated with doxorubicin which includes fatigue, lethargy, anorexia and a general decrease in quality of life (QoL).
A cohort of 5 dogs with osteosarcoma metastatic to the lungs was studied.
In this study, dogs received doxorubicin at […] IV, oclacitinib at 0.4-0.6 mg/kg orally twice per day (label dose) and ladarixin at 15 mg/kg twice per day.
A well validated QoL for dogs with cancer was used (Giuffrida et al., J Am Vet Med Assoc, 252(9): 1073-1083) to assess changes in performance status and quality of life during the course of the study. The QoL values were reported as a numerical value and tracked over each study visit. All owners were required to maintain a diary to chart the administration of medications, note any changes in behaviour, document appetite and energy levels, and identify any other changes in constitutional changes. Owners also recorded a daily performance status (scale from 0 to 5).

[2] = test system: cancer-related fatigue (CRF); settings: A. Spathis et al., 2014; cited from earlier work
[3] = oclacitinib alone; cited from earlier work
[4] = test system: patients with metastatic triple negative breast cancer (TNBC); experiment: Randomized, double-blind, placebo-controlled phase 2 study (FRIDA): fatigue as treatment emergent adverse event (NCI-CTCAE 4.03); type: in vivo, human
Description: The study was conducted with 56 sites actively screening patients in the United States of America, Italy, France, Belgium, Spain, Czech Republic and Poland.
Two sub-groups of patients were studied: newly diagnosed metastatic patients and patients that had relapsed following a prior (neo)adjuvant chemotherapy regimen. Amongst other inclusion criteria, to be able to participate in the study, subjects were to have a Zubrod/ECOG Performance Status of 0 or 1 (0=Fully active; no performance restrictions 1=Strenuous physical activity restricted; fully ambulatory and able to carry out light work).
There was no limit to study treatment duration and patients remained in the study until disease progression, withdrawal of consent or unacceptable toxicity, whichever occurred first.
Investigators reported any adverse events experienced by study patients according to the NCI-CTCAE version 4.03. Toxicity was defined according to the grading scale for each parameter. According to this scale, the presence and intensity of fatigue is defined as follows: • Grade 1: Fatigue relieved by rest • Grade 2: Fatigue not relieved by rest, limiting instrumental ADL • Grade 3: Fatigue not relieved by rest, limiting self care ADL • where instrumental ADL refers to preparing meals, shopping for groceries or clothes, using the telephone, managing money, and the like and self care ADL refer to bathing, dressing and undressing, feeding self, using the toilet, taking medications, but not bedridden.
The distributions of fatigue as a treatment emergent adverse event (TEAE) irrespective of relationship with study treatment were compared among treatment groups using the Chi-squared test (Table 1).

[5] = D0, one value per dog (Record ID 1-5)
[6] = D7, one value per dog (Record ID 1-5)
[7] = D14, one value per dog (Record ID 1-5)
[8] = D21, one value per dog (Record ID 3-5)
[9] = judged by investigators under double-blind conditions, Chi-squared P 0.020
[10] = paclitaxel plus reparixin (Group 1) or placebo (Group 2), Chi-squared P 0.003

In the case of `C[C@@H](C(=O)NS(C)(=O)=O)c1ccc(OS(=O)(=O)C(F)(F)F)cc1` [ladarixin], the “total QoL score” value ([1]; 5 dogs, ladarixin with doxorubicin and oclacitinib) is reported as “over 100”, the mqol gooddavs [1, 5] is reported as 5 (4×) and 4 and the mqol_active [1, 5] is reported as 5 (3×) and 2 and 4. The mqol_depressed [1, 5] was 5 (3×) and 4 (2×), the mqol_drinks [1, 5] was 5 (4×) and 4 and the mqol_eats [1, 5] was 5 (4×) and 4. The mqol_enjoyslife [1, 5] was 5 (4×) and 4, the mqol_lays [1, 5] was 5 (4×) and 2 and the mqol_moves [1, 5] was 5 (4×) and 2. For the same compound, the mqol_play [1, 5] was 5 (4×) and 4, the mqol_presence [1, 5] was 5 (4×) and 4 and the mqol_sleeps [1, 5] was 4 and 3 and 5 (3×). The mqol gooddavs [1, 6] was 4 and 5 (4×), the mqol_active [1, 6] was 5 and the mqol_depressed [1, 6] was 4 and 5 (4×). The mqol_drinks [1, 6] was 5, the mqol_eats [1, 6] was 5 (4×) and 3 and the mqol_enjoyslife [1, 6] was 5. The mqol_lays [1, 6] was 4 and 5 (4×), the mqol_moves [1, 6] was 4 and 5 (4×) and the mqol_play [1, 6] was 5 (4×) and 4. For the same compound, the mqol_presence [1, 6] was 5, the mqol_sleeps [1, 6] was 4 (2×) and 2 and 1 and 5 and the mqol gooddavs [1, 7] was 5. The mqol_active [1, 7] was 5 (3×) and 4 and 3, the mqol_depressed [1, 7] was 5 (4×) and 4 and the mqol_drinks [1, 7] was 5. The mqol_eats [1, 7] was 5, the mqol_enjoyslife [1, 7] was 5 and the mqol_lays [1, 7] was 5 (4×) and 4. The mqol_moves [1, 7] was 5 (2×) and 4 (3×), the mqol_play [1, 7] was 5 and the mqol_presence [1, 7] was 5 (4×) and 4. For the same compound, the mqol_sleeps [1, 7] was 5 (2×) and 4 and 3 (2×), the mqol gooddavs [1, 8] was 5 (2×) and 4 and the mqol_active [1, 8] was 5 (2×) and 2. For the same compound, the mqol_depressed [1, 8] was 5 (2×) and 4, the mqol_drinks [1, 8] was 5 (2×) and 4 and the mqol_eats [1, 8] was 5 (2×) and 4. The mqol_enjoyslife [1, 8] was 5 (2×) and 4, the mqol_lays [1, 8] was 5 (2×) and 2 and the mqol_moves [1, 8] was 4 and 3 and 5. For the same compound, the mqol_play [1, 8] was 5 (2×) and 4, the mqol_presence [1, 8] was 5 (2×) and 4 and the mqol_sleeps [1, 8] was 5 (2×) and 3. The “Effect on severity of fatigue associated with doxorubicin treatment (in words)” value ([1]; ladarixin added to doxorubicin and oclacitinib) was “reduced the severity of the known fatigue induced by the treatment with doxorubicin; also recorded: reduced the severity of the known fatigue associated to the treatment”.
In the case of `NC(=O)C[S+]([O-])C(c1ccccc1)c1ccccc1` (stereo not drawn) [modafimil], the “Benefit over placebo in CRF (in words)” value [2] is given as “no benefit over placebo”.
In the case of `CNS(=O)(=O)C[C@H]1CC[C@H](N(C)c2ncnc3[nH]ccc23)CC1` [oclacitinib], the “Ability to reduce severity of fatigue associated with chemotherapy (in words)” value [3] is listed as “not able to reduce the severity of fatigue associated with chemotherapy”.
With `CC(=O)O[C@H]1C(=O)[C@@]2(C)[C@H]([C@H](OC(=O)c3ccccc3)[C@]3(O)C[C@H](OC(=O)[C@H](O)[C@@H](NC(=O)c4ccccc4)c4ccccc4)C(C)=C1C3(C)C)[C@]1(OC(C)=O)CO[C@@H]1C[C@@H]2O` [paclitaxel] the “Subjects with severe (Grade 3) treatment-related fatigue, number” value ([4]; in vivo) was “two”, the “Subjects with severe (Grade 3) treatment-related fatigue, percent” value ([4]; in vivo) was 3.3% and the “Fatigue as TEAE at least possibly related to study treatment: No, number of subjects” value [4, 9] was 43. The “Fatigue as TEAE at least possibly related to study treatment: No, percent of subjects” value [4, 9] was 71.7%, the “Fatigue as TEAE at least possibly related to study treatment: Yes, number of subjects” value [4, 9] was 17 subjects and the “Fatigue as TEAE at least possibly related to study treatment: Yes, percent of subjects” value [4, 9] was 28.3%. The “Fatigue as TEAE irrespective of relationship with study treatment: Yes, number of subjects” value ([4]; paclitaxel 80 mg/m2 i.v. plus reparixin 1200 mg t.i.d. (Group 1) or placebo (Group 2), Chi-squared P 0.003) was 26 subjects, the “Fatigue as TEAE irrespective of relationship with study treatment: No, number of subjects” value [4, 10] was 34 and the “Fatigue as TEAE irrespective of relationship with study treatment: No, percent of subjects” value [4, 10] was 56.7%. For the same compound, the “Fatigue as TEAE irrespective of relationship with study treatment: Yes, percent of subjects” value [4, 10] was 43.3%.
In the case of `CC(C)Cc1ccc([C@@H](C)C(=O)NS(C)(=O)=O)cc1` [reparixin, R-(−)-2-(4-isobutylphenyl)propionyl methansulfonamide], the “Severity of fatigue in patients experiencing fatigue (NCI-Common Toxicity Criteria Grade)” value ([4]; all patients experiencing fatigue, mild and moderate) is reported as 1-2 Grade and the “Effect on incidence and severity of fatigue (in words)” value ([4]; paclitaxel plus reparixin compared with paclitaxel and placebo) is reported as “beneficial effect on incidence and severity of cancer-related fatigue; also recorded: significantly lower incidence and severity of treatment-related fatigue”.
